Our source for the IC50, DC50 and Dmax values is patent US20220348595A1, “COMPOUNDS AND METHODS FOR THE TARGETED DEGRADATION OF ESTROGEN RECEPTORS” (Endotarget Inc., priority 2021, published 2022).

What all share (type): cell-based
The target in one assay is T1, ER (Homo sapiens, UniProt P03372).
T1 construct: endogenous in cells; host or cells: T47d-kb-Luc (T47D stably transfected with a luciferase reporter gene only)
T1 sequence (P03372 1-595): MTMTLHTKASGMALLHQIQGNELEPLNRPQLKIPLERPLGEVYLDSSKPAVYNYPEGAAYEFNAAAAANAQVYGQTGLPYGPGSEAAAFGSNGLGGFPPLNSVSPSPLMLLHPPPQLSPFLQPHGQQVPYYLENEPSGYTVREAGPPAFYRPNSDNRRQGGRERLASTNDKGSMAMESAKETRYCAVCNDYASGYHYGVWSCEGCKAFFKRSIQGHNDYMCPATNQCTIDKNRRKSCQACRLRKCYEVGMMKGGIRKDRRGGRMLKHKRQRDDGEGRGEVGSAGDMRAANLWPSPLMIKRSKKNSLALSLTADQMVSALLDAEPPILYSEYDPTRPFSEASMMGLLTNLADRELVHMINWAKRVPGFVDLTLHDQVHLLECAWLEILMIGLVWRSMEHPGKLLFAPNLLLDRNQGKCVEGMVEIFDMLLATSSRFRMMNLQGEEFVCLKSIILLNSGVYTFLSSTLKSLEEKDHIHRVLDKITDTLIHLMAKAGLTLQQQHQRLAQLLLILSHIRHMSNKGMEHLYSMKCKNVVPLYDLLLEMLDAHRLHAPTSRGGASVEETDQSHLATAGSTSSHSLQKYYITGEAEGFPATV
As to the kind of experiment: ER antagonism (T47D ERE luciferase), T47d-kb-Luc cells. To be noted: read-out: IC50 (ER antagonistm). The method, then:
The Antiestrogenic Activity of the Exemplary Compounds was Assessed in T47d-kb-Luc Stably Transfected Human Breast Cancer Cell
Antagonist activities were measured by the compound's ability to inhibit the activity of estradiol, the natural estrogen. Data were then normalized relative to the activity of the estradiol control and determinations were performed for five concentrations of the samples in quadruplicate in at least three separate experiments.

Assay [1] concerns MCF-7 breast cancer cells. As to the kind of experiment: MCF-7 proliferation / cell viability assay. To be noted: Homo sapiens, MCF7; MCF-7 proliferation with 0.1 nM 17-beta estradiol; read-out: IC50 (anti-proliferation). The procedure:
The Anti-Proliferative Activities of the Exemplary Compounds were Assessed by a Cell Viability Assay in MCF-7 Breast Cancer Cells
MCF-7 cells were plated in six-well plates at a density of 50,000 each well in 5% FBS DMEM medium. The cells were then treated with exemplary compounds or fulvestrant separately at 6 different doses ranging from 10^−10 M to 10^−5 M for 5 days, while equal volumes of DMSO were used as vehicle controls. Viable cell numbers were counted with a Z Series Coulter Counter instrument (Beckman-Coulter) following manufacturer's instructions. The ratio of drug treated viable cell numbers to vehicle treated viable cell numbers was defined as survival ratio where the control has the survival ratio of 100%.

The next assay concerns the target T2, ERα (Homo sapiens, UniProt P03372).
T2 construct: endogenous in cells; host or cells: MCF-7
T2 sequence (P03372 1-595): T1 sequence (P03372 1-595)
Kind of assay: ER degradation in MCF-7 cells (Western blot). To be noted: for DC50: ER degradation, 24 hours; for Dmax: MCF7, Maximal ER degradation, read-out: Dmax. The method, then: Degradation of ER in MCF-7 Breast Cancer Cells by Exemplary Compounds of the Present Disclosure
MCF-7 cells were plated in 24-well plates at a density of 10^5 cells/well. Media containing various drug concentrations were added on the day following plating (day 0) and allowed to incubate for 24 hours for Western blot. Media with the tested compound was changed every other day. Cells were lysed, snapped frozen in liquid nitrogen, and stored at −80° C. until assay for ERα. Media were removed and dishes were washed with 1× DPBS. Lysates were made by adding 150 μL of complete lysis solution and scraping cells into a 1.5 mL microcentrifuge tube. Lysates were placed on a rotisserie at 4° C. for 30 min and then spun at 4° C. at 12000 rcf for 10 min. Supernatants were assayed for protein content, snap-frozen, and stored a −80° C. if not run immediately. Then 50 μg of protein was subjected to Western blot protocol. Membranes were blocked and then incubated with 1:200 dilution of ERα antibody at 4° C. overnight followed by 1:10000 dilution of secondary antibody for 1 h at room temperature. They were then imaged on a LICOR infrared scanner.
FIGS. 1 to 10 show the ER degradation efficacy of compounds 3, 5, 9, 11, 12, 16, 18, 19, 20, 21, 23, 24, 25, 26, 27, 28, 29, 30, 31, 32, 33, 34, 37, 38, and 40 in MCF-7 cells at various concentrations. Degradation of ER was expressed as an DC50 value and was determined for exemplary compounds in Table 1 by calculation of the concentration of compound that was required to give a 50% reduction of ER expression level. Maximal degradation of ER was expressed as a Dmax value by measuring the highest percentage of ER reduction achieved by exemplary compound in the treatment concentration range.

The structures appear in SMILES notation. pIC50: −log10 of the molar value.

Broadly, the DC50 is the midpoint of the concentration-degradation curve. A high value points to a less potent degrader. The Dmax is the greatest extent of degradation seen. As to `CC/C(=C(\c1ccc(B(O)O)cc1)c1ccc(N2CCC(CCN3CCN(c4ccc5c(c4)CN(C4CCC(=O)NC4=O)C5=O)CC3)CC2)cc1)c1ccccc1` (stereo not shown) [Compound 7, (Z)-(4-(1-(4-(4-(2-(4-(2-(2,6-dioxopiperidin-3-yl)-1-oxoisoindolin-5-yl)piperazin-1-yl)ethyl)piperidin-1-yl)phenyl)-2-phenylbut-1-en-1-yl)phenyl)boronic acid], the values for the pIC50 (at ER; in assay [1]) were greater than 8.00 and 7.30 to 8.00, respectively. For the same compound, the 50% degradation concentration (DC50) on ERα was in the range of 10 to 50 nM. Moreover, at ERα, the greatest degradation seen (Dmax) was greater than 90%.
In the same order, the values of `CC/C(=C(/c1ccc(B(O)O)cc1)c1ccc(N2CCC(CCN3CCN(c4ccc5c(c4)CN(C4CCC(=O)NC4=O)C5=O)CC3)CC2)cc1)c1ccccc1` (stereo not shown) [Compound 8, (E)-(4-(1-(4-(4-(2-(4-(2-(2,6-dioxopiperidin-3-yl)-1-oxoisoindolin-5-yl)piperazin-1-yl)ethyl)piperidin-1-yl)phenyl)-2-phenylbut-1-en-1-yl)phenyl)boronic acid] are greater than 8.00, 7.30 to 8.00, 10 to 50 nM and greater than 90%.
In the same order, the values of `CC/C(=C(\c1ccc(B2OC(C)(C)C(C)(C)O2)cc1)c1ccc(N2CCC(CCN3CCN(c4ccc5c(c4)CN(C4CCC(=O)NC4=O)C5=O)CC3)CC2)cc1)c1ccccc1` (stereo not shown) [Compound 9, (Z)-3-(1-oxo-5-(4-(2-(1-(4-(2-phenyl-1-(4-(4,4,5,5-tetramethyl-1,3,2-dioxaborolan-2-yl)phenyl)but-1-en-1-yl)phenyl)piperidin-4-yl)ethyl)piperazin-1-yl)isoindolin-2-yl)piperidine-2,6-dione] are greater than 8.00, greater than 8.00, 10 to 50 nM and greater than 90%.
In the same order, the values of `CC/C(=C(/c1ccc(B2OC(C)(C)C(C)(C)O2)cc1)c1ccc(N2CCC(CCN3CCN(c4ccc5c(c4)CN(C4CCC(=O)NC4=O)C5=O)CC3)CC2)cc1)c1ccccc1` (stereo not shown) [Compound 10, (E)-3-(1-oxo-5-(4-(2-(1-(4-(2-phenyl-1-(4-(4,4,5,5-tetramethyl-1,3,2-dioxaborolan-2-yl)phenyl)but-1-en-1-yl)phenyl)piperidin-4-yl)ethyl)piperazin-1-yl)isoindolin-2-yl)piperidine-2,6-dione] are greater than 8.00, greater than 8.00, 10 to 50 nM and greater than 90%.
For `CC/C(=C(\c1ccc(B(O)O)cc1)c1ccc(N2CCC(CNC3CCN(c4ccc5c(c4)CN(C4CCC(=O)NC4=O)C5=O)CC3)CC2)cc1)c1ccccc1` (stereo not shown) [Compound 11], the pIC50 (on ER; in assay [1]) was greater than 8.00 throughout. The same compound came in with a DC50 on ERα of less than 10 nM. Also, on ERα, the Dmax is greater than 90%.
On to `CC/C(=C(/c1ccc(B(O)O)cc1)c1ccc(N2CCC(CNC3CCN(c4ccc5c(c4)CN(C4CCC(=O)NC4=O)C5=O)CC3)CC2)cc1)c1ccccc1` (stereo not shown) [Compound 12], for which, on ER, the pIC50 was greater than 8.00. Moreover, the pIC50 in assay [1] was greater than 8.00. Further, at ERα, the DC50 is less than 10 nM and the Dmax is greater than 90%.
As to `CC/C(=C(\c1ccc(B(O)O)cc1)c1ccc(N2CCC(CNC3CCN(c4ccc5c(c4)C(=O)N(C4CCC(=O)NC4=O)C5)CC3)CC2)cc1)c1ccccc1` (stereo not shown) [Compound 13, (Z)-(4-(1-(4-(4-(((1-(2-(2,6-dioxopiperidin-3-yl)-3-oxoisoindolin-5-yl)piperidin-4-yl)amino)methyl)piperidin-1-yl)phenyl)-2-phenylbut-1-en-1-yl)phenyl)boronic acid], the pIC50 at ER was greater than 8.00. Moreover, the pIC50 in assay [1] was greater than 8.00. Also, at ERα, the half-maximal degradation concentration (DC50) was less than 10 nM and the maximal degradation (Dmax) was greater than 90%.
For the compound `CC/C(=C(/c1ccc(B(O)O)cc1)c1ccc(N2CCC(CNC3CCN(c4ccc5c(c4)C(=O)N(C4CCC(=O)NC4=O)C5)CC3)CC2)cc1)c1ccccc1` (stereo not shown) [Compound 14, (E)-(4-(1-(4-(4-(((1-(2-(2,6-dioxopiperidin-3-yl)-3-oxoisoindolin-5-yl)piperidin-4-yl)amino)methyl)piperidin-1-yl)phenyl)-2-phenylbut-1-en-1-yl)phenyl)boronic acid], the pIC50 at ER was greater than 8.00. In addition, the pIC50 in assay [1] is greater than 8.00. On ERα, the 50% degradation concentration (DC50) was less than 10 nM and the Dmax was greater than 90%.
On to `CC/C(=C(/c1ccc(OCCN2CCN(CCCNc3ccc4c(c3)C(=O)N(C3CCC(=O)NC3=O)C4=O)CC2)cc1)c1ccc(B(O)O)cc1)c1ccccc1` (stereo not shown) [Compound 15, (Z)-(4-(1-(4-(2-(4-(3-((2-(2,6-dioxopiperidin-3-yl)-1,3-dioxoisoindolin-5-yl)amino)propyl)piperazin-1-yl)ethoxy)phenyl)-2-phenylbut-1-en-1-yl)phenyl)boronic acid], for which the pIC50 on ER was 7.30 to 8.00. In addition, the pIC50 in assay [1] was 7.30 to 8.00. Besides, on ERα, the DC50 is 10 to 50 nM and the Dmax was greater than 75%.
On to `CC/C(=C(\c1ccc(OCCN2CCN(CCCNc3ccc4c(c3)C(=O)N(C3CCC(=O)NC3=O)C4=O)CC2)cc1)c1ccc(B(O)O)cc1)c1ccccc1` (stereo not shown) [Compound 16, (E)-(4-(1-(4-(2-(4-(3-((2-(2,6-dioxopiperidin-3-yl)-1,3-dioxoisoindolin-5-yl)amino)propyl)piperazin-1-yl)ethoxy)phenyl)-2-phenylbut-1-en-1-yl)phenyl)boronic acid], for which the pIC50 (on ER; in assay [1]) was 7.30 to 8.00 in each case. The half-maximal degradation concentration (DC50) at ERα lay within 10 to 50 nM. The Dmax on ERα was greater than 75%.
For `CC/C(=C(/c1ccc(OCCN2CCN(CC3CCN(c4ccc5c(c4)C(=O)N(C4CCC(=O)NC4=O)C5=O)CC3)CC2)cc1)c1ccc(B(O)O)cc1)c1ccccc1` (stereo not shown) [Compound 17, (Z)-(4-(1-(4-(2-(4-((1-(2-(2,6-dioxopiperidin-3-yl)-1,3-dioxoisoindolin-5-yl)piperidin-4-yl)methyl)piperazin-1-yl)ethoxy)phenyl)-2-phenylbut-1-en-1-yl)phenyl)boronic acid], the pIC50 (at ER; in assay [1]) was 7.30 to 8.00 in each case. At ERα, this compound came in with a half-maximal degradation concentration (DC50) of less than 10 nM. For the same compound, the Dmax on ERα was greater than 90%.
Take `CC/C(=C(/c1ccc(OCCN2CCC(CN3CCN(c4ccc5c(c4)C(=O)N(C4CCC(=O)NC4=O)C5=O)CC3)CC2)cc1)c1ccc(B(O)O)cc1)c1ccccc1` (stereo not shown) [Compound 19, (Z)-(4-(1-(4-(2-(4-((4-(2-(2,6-dioxopiperidin-3-yl)-1,3-dioxoisoindolin-5-yl)piperazin-1-yl)methyl)piperidin-1-yl)ethoxy)phenyl)-2-phenylbut-1-en-1-yl)phenyl)boronic acid]: at ER, the pIC50 was less than 7.30. Moreover, the pIC50 in assay [1] was less than 7.30. Further, on ERα, the half-maximal degradation concentration (DC50) fell in the range of 10 to 50 nM and the greatest degradation seen (Dmax) was greater than 75%.
As to `CC/C(=C(\c1ccc(OCCN2CCC(CN3CCN(c4ccc5c(c4)C(=O)N(C4CCC(=O)NC4=O)C5=O)CC3)CC2)cc1)c1ccc(B(O)O)cc1)c1ccccc1` (stereo not shown) [Compound 20, (E)-(4-(1-(4-(2-(4-((4-(2-(2,6-dioxopiperidin-3-yl)-1,3-dioxoisoindolin-5-yl)piperazin-1-yl)methyl)piperidin-1-yl)ethoxy)phenyl)-2-phenylbut-1-en-1-yl)phenyl)boronic acid], the pIC50 on ER is less than 7.30. In addition, the pIC50 in assay [1] was less than 7.30. Further, on ERα, the DC50 is 10 to 50 nM and the Dmax was greater than 75%.
